The values below are quoted from earlier work in US6443892B1, “Sweat collecting device and methods for use and detection of tampering” (The United States of America as represented by the …, priority 2000, dated 2002).

For series [1] the following is noted: basic media.
For series [2] the following is noted: hydrophilic dye; hydration of inner pad not reported.

With `CC(=O)Oc1ccc2c3c1O[C@H]1[C@@H](OC(C)=O)C=C[C@H]4[C@@H](C2)N(C)CC[C@@]341` [heroin], the “earliest collection time with detectable concentrations after drugs placed on outside of membrane” value in series [1] is recorded as “approximately 30 seconds”. Regarding `CN[C@@H](C)Cc1ccccc1` [methamphetamine], the “earliest collection time with detectable concentrations after drugs placed on outside of membrane” value in series [1] is listed as “approximately 30 seconds”. Consider `CCN(CC)c1ccc2c(-c3ccccc3C(=O)O)c3ccc(=[N+](CC)CC)cc-3oc2c1.[Cl-]` [rhodamine B], for which the CFWO through membrane entry in series [2] is “No CFWO was observed”.
